The first experiment concerns the target hepatitis C virus RNA dependant polymerase (NS5B) (Hepatitis C virus genotype 1b, UniProt P26663). The experiment can be described thus: Inhibition of NS5B RNA dependent RNA polymerase activity. It is filed as biochemical. The following applies: Table 1; HCV NS5B polymerase. On the procedure: A suitable assay is described in the examples.
Inhibition of NS5B RNA Dependent RNA Polymerase Activity
The compounds of the invention were tested for inhibitory activity against the hepatitis C virus RNA dependant polymerase (NS5B), according to protocol described in WO 03/010141
Chain of hepatitis C virus RNA dependant polymerase (NS5B) (P26663 2420-3010): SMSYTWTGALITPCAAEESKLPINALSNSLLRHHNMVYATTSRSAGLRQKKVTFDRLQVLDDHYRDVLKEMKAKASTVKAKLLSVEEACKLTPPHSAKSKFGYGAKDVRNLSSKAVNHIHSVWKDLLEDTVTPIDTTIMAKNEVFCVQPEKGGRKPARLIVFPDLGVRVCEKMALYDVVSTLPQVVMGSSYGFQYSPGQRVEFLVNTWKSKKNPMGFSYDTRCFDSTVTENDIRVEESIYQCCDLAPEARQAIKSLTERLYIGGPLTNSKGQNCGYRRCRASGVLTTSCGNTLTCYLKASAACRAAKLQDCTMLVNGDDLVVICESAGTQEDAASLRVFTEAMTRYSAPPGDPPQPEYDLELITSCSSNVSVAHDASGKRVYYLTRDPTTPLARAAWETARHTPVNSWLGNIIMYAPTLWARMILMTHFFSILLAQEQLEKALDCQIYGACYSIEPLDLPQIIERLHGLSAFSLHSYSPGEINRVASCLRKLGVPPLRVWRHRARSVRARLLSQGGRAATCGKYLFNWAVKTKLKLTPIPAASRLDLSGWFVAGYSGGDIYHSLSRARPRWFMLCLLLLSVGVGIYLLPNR
Broadly, the IC50 is the midpoint of a concentration-inhibition curve. Higher therefore signals a need for much substance. For the compound `O=C(O)c1ccc2c(C3CCCCC3)c(-c3ccccc3)n(CC(=O)N3CCOCC3)c2c1` [Example 1023], the IC50 was < 200 nM.
The same measure, in the same setting: for `CN(C)C(=O)Cn1c(-c2ccsc2)c(C2CCCCC2)c2ccc(C(=O)O)cc21` [Example 1028] the value was < 200 nM.
The same measure, in the same setting: the same measure for `O=C(O)c1ccc2c(C3CCCCC3)c(-c3ccccc3)n(CC(=O)N3CCC(N4CCCC4)CC3)c2c1` [Example 1024]: < 200 nM; for `CN(C)C(=O)[C@@H]1CCCN1C(=O)Cn1c(-c2ccoc2)c(C2CCCCC2)c2ccc(C(=O)O)cc21` [Example 1122]: < 200 nM; for `CC(C)NC(=O)Cn1c(-c2ccoc2)c(C2CCCCC2)c2ccc(C(=O)O)cc21` [Example 1106]: 200 to 1000 nM.
Same read-out and setting: the same measure for `O=C(O)c1ccc2c(C3CCCCC3)c(-c3ccoc3)n(CC(=O)N3CCC(N4CCCC4)CC3)c2c1` [Example 1116]: < 200 nM.
In the case of `CN(C)c1ccc(NC(=O)Cn2c(-c3ccoc3)c(C3CCCCC3)c3ccc(C(=O)O)cc32)cc1` [Example 1105], the IC50 fell in the range of 200 to 1000 nM.
On the same count and under the same terms, the same measure for `CC(C)CN(C)C(=O)Cn1c(-c2ccoc2)c(C2CCCCC2)c2ccc(C(=O)O)cc21` [Example 1006]: 200 to 1000 nM.
Still for that read-out and setting: for `CN(C)C(=O)Cn1c(-c2ccoc2)c(C2CCCCC2)c2ccc(C(=O)O)cc21` [Example 1111] the value was < 200 nM; for `O=C(O)CNNC(=O)Cn1c(-c2ccoc2)c(C2CCCCC2)c2ccc(C(=O)O)cc21` [Example 1068], < 200 nM; for `O=C(O)c1ccc2c(C3CCCCC3)c(-c3ccoc3)n(CC(=O)N3CCC(O)CC3)c2c1` [Example 1100], < 200 nM.
The compound `CC(C)NC(=O)Cn1c(-c2cccs2)c(C2CCCCC2)c2ccc(C(=O)O)cc21` [Example 1036] returned an IC50 of 200 to 1000 nM.
Take `CN(C)C(=O)CN1CCN(C(=O)Cn2c(-c3ccoc3)c(C3CCCCC3)c3ccc(C(=O)O)cc32)CC1` [Example 1130]: the IC50 is < 200 nM.
On the same count and under the same terms, the same measure for `O=C(O)CCNC(=O)Cn1c(-c2ccoc2)c(C2CCCCC2)c2ccc(C(=O)O)cc21` [Example 1073]: < 200 nM; for `CNC(=O)Cn1c(-c2ccoc2)c(C2CCCCC2)c2ccc(C(=O)O)cc21` [Example 1062]: 200 to 1000 nM.

The experiment is the same for the next values; noted with them: Table 2; HCV NS5B polymerase.
`O=C(NS(=O)(=O)c1ccc2ccccc2c1)c1ccc2c(C3CCCCC3)c(-c3ccoc3)n(CC(=O)N3CCOCC3)c2c1` [Example 2007]: the IC50 is < 200 nM.
As for `O=C(NS(=O)(=O)c1cccc2cccnc12)c1ccc2c(C3CCCCC3)c(-c3ccoc3)n(CC(=O)N3CCOCC3)c2c1` [Example 2024], the IC50 was < 200 nM.

Staying with this experiment, now noted: Table 3; HCV NS5B polymerase.
With `Nc1nc(-c2ccc(NC(=O)C3(NC(=O)c4ccc5c(C6CCCC6)c(-c6ccoc6)n(CC(=O)N6CCOCC6)c5c4)CCCNC3)cc2)cs1` (stereo not drawn) [Example 3001], the IC50 was < 200 nM.

The same experiment, now with this note: Table 4; class ranges.
In the case of `O=C(O)C=Cc1ccc2nc(C3(NC(=O)c4ccc5c(C6CCCCC6)c(-c6ccoc6)n(CC(=O)N6CCOCC6)c5c4)CCC3)[nH]c2c1` [Example 4067], the IC50 is < 200 nM.
Same read-out and setting: the same measure for `CNc1nc(C2(NC(=O)c3ccc4c(C5CCCCC5)c(-c5ccoc5)n(CC(=O)N5CCC(N6CCCC6)CC5)c4c3)CCC2)cs1` [Example 4103]: < 200 nM; for `O=C(NCc1ccc(O)c(O)c1)c1ccc2c(C3CCCCC3)c(-c3ccoc3)n(CC(=O)N3CCOCC3)c2c1` [Example 4062]: < 200 nM; for `COc1ccc([C@@H](C)NC(=O)c2ccc3c(C4CCCCC4)c(-c4ccoc4)n(CC(=O)N(C)C)c3c2)cc1` [Example 4059]: < 200 nM.
The same measure, in the same setting: the same measure for `CN(C)C(=O)C1(NC(=O)c2ccc3c(C4CCCCC4)c(-c4ccoc4)n(CC(=O)N4CCOCC4)c3c2)CCC1` [Example 4093]: < 200 nM; for `CN1CCN(C(=O)Cn2c(-c3ccoc3)c(C3CCCCC3)c3ccc(C(=O)NCCc4ccccc4)cc32)CC1` [Example 4026]: 1000 to 10000 nM.
Still for that read-out and setting: the same measure for `CNC(=O)C(C)(C)NC(=O)c1ccc2c(C3CCCCC3)c(-c3ccoc3)n(CC(=O)N3CCC(N4CCCC4)CC3)c2c1` [Example 4084]: < 200 nM; for `CC(CNC(=O)c1ccc2c(C3CCCCC3)c(-c3ccoc3)n(CC(=O)N3CCN(C)CC3)c2c1)c1ccccc1` (stereo not drawn) [Example 4024]: 1000 to 10000 nM; for `CN(C)C(=O)C1(NC(=O)c2ccc3c(C4CCCCC4)c(-c4ccoc4)n(CC(=O)N4CCC(N5CCCC5)CC4)c3c2)CCCC1` [Example 4095]: < 200 nM.
Consider `CN1CCN(C(=O)Cn2c(-c3ccoc3)c(C3CCCCC3)c3ccc(C(=O)NCc4ccc(S(C)(=O)=O)cc4)cc32)CC1` [Example 4041], for which the IC50 is < 200 nM.

Staying with this experiment, now noted: Table 5; HCV NS5B polymerase.
Compound `C/C=C/Cn1c(-c2ccoc2)c(C2CCCCC2)c2ccc(C(=O)O)cc21` [Example 5005] came in with an IC50 of 1000 to 10000 nM.
On the same count and under the same terms, the same measure for `CC(C(=O)N(C)C)n1c(-c2ccoc2)c(C2CCCCC2)c2ccc(C(=O)O)cc21` (stereo not drawn) [Example 5009]: 1000 to 10000 nM.
On the same count and under the same terms, the same measure for `C=CCn1c(-c2ccoc2)c(C2CCCCC2)c2ccc(C(=O)O)cc21` [Example 5004]: 200 to 1000 nM.

The same experiment, now with this note: Table 7; class ranges.
Turning to `O=C(NCc1cccnc1)c1ccc2c(c1)c(C1CCCCC1)c(-c1ccoc1)n2CC(=O)N1CCC(N2CCCC2)CC1` [Example 7021], the IC50 fell in the range of 1000 to 10000 nM.
Still for that read-out and setting: the same measure for `NC(=O)C1CCCN(C(=O)c2ccc3c(c2)c(C2CCCCC2)c(-c2ccoc2)n3CC(=O)N2CCC(N3CCCC3)CC2)C1` (stereo not drawn) [Example 7017]: 1000 to 10000 nM; for `O=C(NCCN1CCNC1=O)c1ccc2c(c1)c(C1CCCCC1)c(-c1ccoc1)n2CC(=O)N1CCC(N2CCCC2)CC1` [Example 7044]: 1000 to 10000 nM.
Same read-out and setting: the same measure for `COC(=O)C(Cc1ccc(Cl)cc1)NC(=O)c1ccc2c(c1)c(C1CCCCC1)c(-c1ccoc1)n2CC(=O)N1CCC(N2CCCC2)CC1` (stereo not drawn) [Example 7060]: 1000 to 10000 nM; for `COc1cc2c(C3CCCCC3)c(-c3ccoc3)n(CC(=O)N3CCC(N4CCCC4)CC3)c2cc1C(=O)O` [Example 7003]: 200 to 1000 nM.

(Values after patent US7888363B2, “Viral polymerase inhibitors” (Boehringer Ingelheim International GmbH, priority 2003, dated 2011).)
